Assay results as given in patent US12624057B2, “Bisphosphonate quinolone conjugates and uses thereof” (BIOVINC, LLC, priority 2016, dated 2026).
Entries after “also recorded” stand apart in the source; their conditions may differ.

How the values were obtained:
Assay type in all cases: cell-based, Staphylococcus aureus
[1] = test system: S. aureus ATCC6538 biofilms; test: Survival of S. aureus biofilm on pretreated, rinsed HA discs; conditions: pretreated HA discs
Procedure: HA discs incubated in DMSO or phosphate buffer served as control samples. Next, discs were rinsed 3 times with sterile water. After rinsing, 2 mL of 0.5 MF of. S. aureus ATCC6538 were introduced to wells containing HA discs as a substrate for biofilm development and biofilms were formed as before.

[2] = test system: biofilms of S. aureus strain ATCC-6538; test: Preformed biofilms on HA discs, S. aureus; conditions: HA as substrate
Procedure: Antimicrobial susceptibility testing of BP-ciprofloxacin against preformed biofilms of S. aureus strain ATCC-6538 and P. aeruginosa strain ATCC-15442: Strains cultured on appropriate agar plates (Columbia agar plate for S. aureus; MacConkey agar plate for P. aeruginosa) were transferred to liquid microbiological media and incubated for 24 h/37° C. under aerobic conditions. After incubation, strains were diluted to the density of 1 MF. The microbial dilutions were introduced to wells of 24-well plates containing HA discs as a substrate, or simply to polystyrene wells where the bottom surface of the wells served as the substrate for biofilm development. Strains were incubated at 37° C. for 4 hrs. Next, the microbe-containing solutions were removed from the wells. The surfaces, HA discs and polystyrene plates, were gently rinsed to leave adhered cells and to remove planktonic or loosely-bound microbes. Surfaces prepared in this manner were immersed in fresh TSB medium containing 0.24-125 mg/L of BP-ciprofloxacin conjugate. After 24 hrs of incubation at 37° C. the surfaces were rinsed using physiological saline solution and transferred to 1 mL of 0.5% saponin (Sigma-Aldrich, St Louis, MO). The surfaces were vortex-mixed vigorously for 1 minute to detach cells. Subsequently, all microbial suspensions were diluted 10 to 10^9 times. Each dilution ([…]) was cultured on the appropriate stable medium (MacConkey, Columbia for P. aeruginosa and S. aureus, respectively) and incubated at 37-C for 24 hours. After this time, the microbial colonies were counted and the number of cells forming biofilm was assessed. Results were presented as the mean number of CFU per square millimeter surface±standard error of the mean. To estimate the exact surface area of HA discs, x-ray tomographic analysis was applied. For estimation of the area of test plate bottoms, the equation for circle area: πr2 was applied.
Antimicrobial susceptibility testing of 6 against preformed biofilms of S. aureus strain ATCC-6538 and P. aeruginosa strain ATCC-15442: Strains cultured on appropriate agar plates (Columbia agar plate for S. aureus; MacConkey agar plate for P. aeruginosa) were transferred to liquid microbiological media and incubated for 24 hrs/37° C. under aerobic conditions. After incubation, strains were diluted to the density of 1 MF. The microbial dilutions were introduced to wells of 24-well plates containing HA discs as a substrate, or simply to polystyrene wells where the bottom surface of the wells served as the substrate for biofilm development. Strains were incubated at 37° C. for 4 hrs. Next, the microbe-containing solutions were removed from the wells. The surfaces, HA discs and polystyrene plates, were gently rinsed to leave adhered cells and to remove planktonic or loosely-bound microbes. […] After 24 hrs of incubation at 37° C. the surfaces were rinsed using physiological saline solution and transferred to 1 mL of 0.5% saponin (Sigma-Aldrich, St Louis, MO). The surfaces were vortex-mixed vigorously for 1 minute to detach cells. Subsequently, all microbial suspensions were diluted 10-1 to 10-9 times. Each dilution ([…]) was cultured on the appropriate stable medium (MacConkey, Columbia for P. aeruginosa and S. aureus, respectively) and incubated at 37° C. for 24 hrs. After this time, the microbial colonies were counted and the number of cells forming biofilm was assessed. Results were presented as the mean number of CFU per square millimeter surface±standard error of the mean. To calculate the surface area of HA discs, x-ray tomographic analysis was applied. For estimation of the area of test plate bottoms, the equation for circle area: πr^2 was applied.

S. aureus 6538 = test: Preventative assay, HA spherules pretreated then inoculated with S. aureus
Procedure: Preventative ability of BP-ciprofloxacin conjugate to inhibit S. aureus 6538 adherence to HA spherules: Various BP-ciprofloxacin concentrations were introduced to HA powder (spherules) suspended in TSB microbiological medium. Solutions containing conjugate and HA spherules were introduced to wells of 24-well plates. Final concentrations of powder were 10 mg/1 mL, while final concentrations of the conjugate were 0.12-250 mg/L. Suspensions were left for 24 h/37° C./shaking. After 24 h, suspensions were removed from the wells and impulse-centrifuged to precipitate HA powder. Next, supernatant was very gently discarded and a fresh 1 mL of S. aureus of density 10^5 cfu/mL was introduced to the HA spherules. Subsequently, this solution was shaken, absorbance was measured using 580 nm wavelength and left for 24 h/37° C./shaking. After incubation absorbance was measured again and values from 0 hr and 24 hrs were compared to assess reduction of bacterial growth with regard to control sample one (bacterial suspension but no spherules) and control sample two (bacterial suspension+spherules but with no conjugate added). Additionally, solutions were impulse-centrifuged, supernatant was gently discarded, while bacteria-containing HA spherules were culture plated as before and quantitatively assessed. […]

[3] = test system: planktonic S. aureus clinical osteomyelitis strains (MSSA and MRSA); test: MIC by microdilution against planktonic clinical S. aureus strains; conditions: for antimicrobial activity / MIC against planktonic S. aureus (in words): microdilution, 24 h
Procedure: (§1) Subsequently, the plate was incubated for 24 h/37° C. in a shaker to obtain optimal conditions for microbial growth and to prevent bacteria from forming biofilms. After incubation, the absorbance was measured once again. The following control samples were established: negative control sample one: sterile medium without microbes; negative control sample two: sterile medium without microbes implemented with DMSO (dimethyl sulfoxide, Sigma-Aldritch) to final concentration of 1% (v/v); positive control sample one: medium+microbes with no compound tested; positive control sample two: medium+microbes with no compound tested but implemented with DMSO to final concentration of 1% (v/v). […] To assess relative number of cells, the following calculations were performed. […] Next, the relative number of cells subjected to incubation with tested compounds were counted as follows: […].
as §1, with “Evaluation of the MIC of tested compounds against planktonic forms of clinical staphylococcal strains analyzed: To assess the impact of parent antibiotic and conjugates on microbial growth, 100 μl of microbial solutions of density 1×10^5 CFU/ml were placed into wells of 96-well test plates together with appropriate concentrations of tested compounds. […] Subsequently,” for “Subsequently,”, “plates were” for “the plate was”, “hrs/37°” for “h/37°”, “Sigma-Aldrich)” for “Sigma-Aldritch)”
The occurrence of opacification or lack of opacification of media was proof of pathogen growth or lack of growth, respectively. Additionally, bacterial solutions were cultured on the appropriate stable medium. Growth or lack of growth of bacterial colonies together with above-mentioned results from liquid cultures served as confirmation of results obtained spectrophotometrically.

O=C(O)c1cn(C2CC2)c2cc(N3CCN(C(=O)c4ccc(CC(P(=O)(O)O)P(=O)(O)O)cc4)CC3)c(F)cc2c1=O [Compound 11, 1-cyclopropyl-7-(4-(4-(2,2-diphosphonoethyl)benzoyl)piperazin-1-yl)-6-fluoro-4-oxo-1,4-dihydroquinoline-3-carboxylic acid]
ability to prevent biofilm formation on pretreated HA (in words) [1]: no significant antimicrobial activity | ability to prevent biofilm formation on pretreated HA (in words) ([1]; listed as BAC): did not inhibit the growth of biofilms on bone substitute even at very high concentrations | bactericidal activity / reduction of CFUs against established biofilm (in words) [2]: insignificant; also recorded: No significant activity is observed at any concentration | preventative antimicrobial activity on pretreated HA (in words) (S. aureus 6538): insignificant; also recorded: not detectable; also recorded: no antimicrobial activity is observed | concentration of 11 relative to 6 to achieve the same antibacterial effect ([3]; MIC assay, S. aureus strains): 2-64 × | antimicrobial activity / MIC against planktonic S. aureus (in words) [3]: weaker activity | antimicrobial activity / MIC against planktonic S. aureus (in words) ([3]; listed as BAC): very little effect on bacterial growth under any circumstances; also recorded: has lost most of the activity
